Measured values as given in US20220354894A1, “Cell Composition Comprising Radiolabled Mesenchymal Stem Cells, Use Thereof and Method for Preparing Radiolabeled Mesenchymal Stem Cells” (Boehringer Ingelheim Veterinary Medicine Belgium, priority 2019, published 2022).

Legend:
[1] = Planar scintigraphy biodistribution after IV injection in healthy horses (Example 6); assay type: in vivo; conditions: horse
From the text: Four healthy adult horses (2 neutered male and 2 female horses, 7 to 19 years old) from two different breeds (2 Belgian warmblood and 2 French Trotter) were included in this study. All animals underwent a full veterinary examination before being included in the study and were stalled at least 2 days prior to the start of the study. During the study, the animals were housed in individual stables of 3.5 by 4 (L×W) according to normal housing procedures with water ad libitum and hay twice a day. During the study, a daily general clinical examination was performed (day 0-3). All horses received a total of two IV injections; the first consisted of free ^99mTc dissolved in DMEM which served as control. The second injection was administered three days later and consisted of ^99mTc-labelled ePB-MSC.
For the IV injections of the horses, a 18 G catheter was placed in the left jugular vein of each horse and sedation was achieved using detomidine hydrochloride (Domidine 10 mg/mL; Dechra, The Netherlands) 0.01 mg/kg body weight and butorphanol tartrate (butomidor 10 mg/mL; AST farma BV, Oudewater, Germany) 0.01 mg/kg body weight IV When required, detomidine hydrochloride (Domidine 10 mg/mL; Dechra) was added during the scan with a maximum of 0.002 mg/kg. The horses stood straight with all four limbs using a table to stabilize the head. On day 0, all four horses were IV injected with free ^99mTc dissolved in DMEM. Consequently, on day 3, all horses were IV injected with ^99mTc-labelled ePB-MSCs dissolved in DMEM as described above. Planar scintigraphy was performed 1 h and 6 h post-injection for both injections using a gamma camera (Equine HR, Medical Imaging Electronics) (matrix: 128×128; acquisition time: 60 seconds per time frame (60 frames); collimator: low energy high resolution (140 KeV, 15% symmetrical window); field of view: 600×410 mm). Following body parts were scanned: head, thorax and abdomen starting with the head, left thorax and left abdomen and continuing with the right abdomen and right thorax.
Distribution of the ^99mTc labelled ePB-MSCs and free ^99mTc was subjectively assessed through the whole body using Multimodality software (Nuclear diagnostics, Sweden). Different organs of interests were manually delineated for each horse at each time point: the lungs, bladder, stomach, kidney, parotid gland and thyroid. Radioactive counts per pixel were calculated for each organ of interest, decay corrected and divided by the initial injected radioactivity in the whole body to obtain a relative uptake value.

[2] = Whole body scintigraphy biodistribution after IV, IM, SC injection in dogs (Example 4); assay type: in vivo; conditions: dog
Method: Three different studies were performed. In a first study, the biodistribution of intravenously administrated equine peripheral blood-derived MSCs (ePB-MSCs) was evaluated in four dogs. In the second study, the biodistribution of intramuscularly and subcutaneously administrated ePB-MSCs was evaluated in four dogs. Finally, in a third study, the biodistribution of a higher dose of ePB-MSCs following intravenous administration was evaluated in three dogs.
Four healthy adult research dogs were included in the two first studies; three dogs from the second study were re-used for the third study. All dogs were purpose bred adult beagles (16-23 months). Two males and two females were included in the first two studies and one male and two female dogs were included in the third study. The dogs were housed in groups of 2, in a pen of 4 by 4 by 2 m (L×W×H) so permanent visual, olfactorial, tactile and auditive contact between dogs was possible. Toys were provided for the dogs to play with in their pen. Cleaning of the dog pens was performed daily. The floor was covered with wood shavings to improve lying comfort for the dogs. The animals were let out in dog runs to play and run for minimal 1 hour a day. After the study this minimal time was increased depending on the need of the dogs.
In the first study, each dog received two intravenous injections; first the dogs were injected with the control product: freshly eluted ^99mTc dissolved in DMEM and at least 7 days later they received a second injection with ^99mTc-labeled ePB-MSCs. For the second study, 4 injections were administered to each dog. The dogs first received an IM injection with the control product, next a SC with the control product, then an IM injection with the ^99mTc-labeled ePB-MSCs and finally a SC administration of the ^99mTc-labeled ePB-MSCs. At least 7 days separated each injection. In the third study, the three dogs received a single IV injection with ^99mTc-labeled ePB-MSCs.
The dogs were put under general anesthesia and positioned in sternal recumbency on the gamma camera before each injection. To obtain general anesthesia, the dogs were first sedated with dexmedetomidine (12-25 μg/kg IM), next induction was obtained with propofol (dosage on effect) and anesthesia was maintained with isoflurane 1.2-1.4% (on effect) in 100% oxygen following endotracheal intubation. The intravenous injection was administered through a 22-gauge catheter in one of the cephalic veins, the intramuscular injection was performed in the left quadriceps muscle and the subcutaneous injection was administered at the back of the neck.
A two-headed gamma camera, equipped with low energy high resolution collimators (GCA 7200 A; Toshiba) was used for the scintigraphic investigation. The whole body scan was obtained with the detectors of the SPECT scanner moving simultaneous dorsally and ventrally from head to tail of the dog over 10 minutes. All dogs were kept under general anesthesia during all the acquisitions. For all 3 studies, data collection of the first hour consisted of 6 successive acquisitions of each 10 minutes. The start of the first acquisition was simultaneous with injection of the radioactive compound and the dog remained in the same position for all 6 scans. Next, in the first study, total body scans (each lasting 10 minutes) were performed at 2 h, 4 h, 8 h, 12 h, 24 h and 36 h after placebo control and labeled ePB-MSCs administration using propofol (dosage on effect). For the second and the third study, 6 successive 10 minutes' total body scans performed during the first hour after injection were followed by total body scans (each lasting 10 minutes) at 6 h and 24 h after each injection. For all studies, a syringe with a known amount of radioactivity to calculate % injected dose (ID), was simultaneous scanned with the dog. Care was taken for the dog's re-positioning on the table, to avoid too much spatial deviation on the scans following the first hour scans. […]

radioactivity in the intestines [1]: small activity | accumulation in the kidneys ([1]; 1 h and 6 h post-injection): no kidney accumulation | accumulation in the stomach ([1]; 1 h and 6 h post-injection): High accumulation | radioactivity in the bladder ([1]; 1 h and 6 h post-injection): accumulation was higher | uptake in the lungs ([1]; 1 h and 6 h post-injection): distinct radioactive uptake | uptake in the parotid glands ([1]; 1 h and 6 h post-injection): high uptake | uptake in the thyroid gland ([1]; 1 h and 6 h post-injection): very high accumulation | percentage of injected dose at injection site ([2]; IM, 10 min): 29.49% | percentage of injected dose in bladder ([2]; IM, 10 min): 0.13% | percentage of injected dose in heart ([2]; IM, 10 min): 0.45% | percentage of injected dose in left salivary gland ([2]; IM, 10 min): 0.02% | percentage of injected dose in lung ([2]; IM, 10 min): 1.06% | percentage of injected dose in right salivary gland ([2]; IM, 10 min): 0.01% | percentage of injected dose in stomach ([2]; IM, 10 min): 1.62% | percentage of injected dose in thyroid ([2]; IM, 10 min): 0.05% | percentage of injected dose at injection site ([2]; IM, 60 min): 3.63% | percentage of injected dose in bladder ([2]; IM, 60 min): 3.51% | percentage of injected dose in heart ([2]; IM, 60 min): 2.46% | percentage of injected dose in left salivary gland ([2]; IM, 60 min): 1.03% | percentage of injected dose in lung ([2]; IM, 60 min): 6.92% | percentage of injected dose in right salivary gland ([2]; IM, 60 min): 0.99% | percentage of injected dose in stomach ([2]; IM, 60 min): 17.36% | percentage of injected dose in thyroid ([2]; IM, 60 min): 1.10% | percentage of injected dose at injection site ([2]; IM, 6 hours): 0.19% | percentage of injected dose in bladder ([2]; IM, 6 hours): 4.77% | percentage of injected dose in heart ([2]; IM, 6 hours): 1.45% | percentage of injected dose in left salivary gland ([2]; IM, 6 hours): 1.84% | percentage of injected dose in lung ([2]; IM, 6 hours): 4.41% | percentage of injected dose in right salivary gland ([2]; IM, 6 hours): 1.60% | percentage of injected dose in stomach ([2]; IM, 6 hours): 17.25% | percentage of injected dose in thyroid ([2]; IM, 6 hours): 1.15% | percentage of injected dose at injection site ([2]; IM, 24 hours): 0.12% | percentage of injected dose in bladder ([2]; IM, 24 hours): 5.08% | percentage of injected dose in heart ([2]; IM, 24 hours): 0.69% | percentage of injected dose in left salivary gland ([2]; IM, 24 hours): 2.47% | percentage of injected dose in lung ([2]; IM, 24 hours): 2.14% | percentage of injected dose in right salivary gland ([2]; IM, 24 hours): 2.09% | percentage of injected dose in stomach ([2]; IM, 24 hours): 9.36% | percentage of injected dose in thyroid ([2]; IM, 24 hours): 0.57% | percentage of injected dose in bladder ([2]; IV, 10 min): 0.63% | percentage of injected dose in heart ([2]; IV, 10 min): 2.79% | percentage of injected dose in left salivary gland ([2]; IV, 10 min): 0.33% | percentage of injected dose in liver ([2]; IV, 10 min): 2.93% | percentage of injected dose in lung ([2]; IV, 10 min): 3.73% | percentage of injected dose in right salivary gland ([2]; IV, 10 min): 0.33% | percentage of injected dose in stomach ([2]; IV, 10 min): 4.84% | percentage of injected dose in thyroid ([2]; IV, 10 min): 0.41% | percentage of injected dose in bladder ([2]; IV, 60 min): 1.93% | percentage of injected dose in heart ([2]; IV, 60 min): 1.61% | percentage of injected dose in left salivary gland ([2]; IV, 60 min): 0.77% | percentage of injected dose in liver ([2]; IV, 60 min): 2.07% | percentage of injected dose in lung ([2]; IV, 60 min): 2.62% | percentage of injected dose in right salivary gland ([2]; IV, 60 min): 0.72% | percentage of injected dose in stomach ([2]; IV, 60 min): 9.77% | percentage of injected dose in thyroid ([2]; IV, 60 min): 0.61% | percentage of injected dose in bladder ([2]; IV, 6 hours): 2.42% | percentage of injected dose in heart ([2]; IV, 6 hours): 1.45% | percentage of injected dose in left salivary gland ([2]; IV, 6 hours): 1.31% | percentage of injected dose in liver ([2]; IV, 6 hours): 1.73% | percentage of injected dose in lung ([2]; IV, 6 hours): 1.97% | percentage of injected dose in right salivary gland ([2]; IV, 6 hours): 0.88% | percentage of injected dose in stomach ([2]; IV, 6 hours): 8.98% | percentage of injected dose in thyroid ([2]; IV, 6 hours): 0.61% | percentage of injected dose in bladder ([2]; IV, 24 hours): 2.71% | percentage of injected dose in heart ([2]; IV, 24 hours): 0.54% | percentage of injected dose in left salivary gland ([2]; IV, 24 hours): 1.34% | percentage of injected dose in liver ([2]; IV, 24 hours): 0.99% | percentage of injected dose in lung ([2]; IV, 24 hours): 0.77% | percentage of injected dose in right salivary gland ([2]; IV, 24 hours): 0.98% | percentage of injected dose in stomach ([2]; IV, 24 hours): 5.02% | percentage of injected dose in thyroid ([2]; IV, 24 hours): 0.24% | percentage of injected dose at injection site ([2]; SC, 10 min): 27.27% | percentage of injected dose in bladder ([2]; SC, 10 min): 0.13% | percentage of injected dose in heart ([2]; SC, 10 min): 0.24% | percentage of injected dose in left salivary gland ([2]; SC, 10 min): 0.12% | percentage of injected dose in lung ([2]; SC, 10 min): 0.92% | percentage of injected dose in right salivary gland ([2]; SC, 10 min): 0.13% | percentage of injected dose in stomach ([2]; SC, 10 min): 0.53% | percentage of injected dose in thyroid ([2]; SC, 10 min): 0.00% | percentage of injected dose at injection site ([2]; SC, 60 min): 17.57% | percentage of injected dose in bladder ([2]; SC, 60 min): 2.29% | percentage of injected dose in heart ([2]; SC, 60 min): 1.61% | percentage of injected dose in left salivary gland ([2]; SC, 60 min): 0.45% | percentage of injected dose in lung ([2]; SC, 60 min): 4.86% | percentage of injected dose in right salivary gland ([2]; SC, 60 min): 0.45% | percentage of injected dose in stomach ([2]; SC, 60 min): 9.24% | percentage of injected dose in thyroid ([2]; SC, 60 min): 0.00% | percentage of injected dose at injection site ([2]; SC, 6 hours): 0.00% | percentage of injected dose in bladder ([2]; SC, 6 hours): 2.75% | percentage of injected dose in heart ([2]; SC, 6 hours): 1.61% | percentage of injected dose in left salivary gland ([2]; SC, 6 hours): 1.44% | percentage of injected dose in lung ([2]; SC, 6 hours): 4.57% | percentage of injected dose in right salivary gland ([2]; SC, 6 hours): 1.33% | percentage of injected dose in stomach ([2]; SC, 6 hours): 14.37% | percentage of injected dose in thyroid ([2]; SC, 6 hours): 0.96% | percentage of injected dose at injection site ([2]; SC, 24 hours): 0.00% | percentage of injected dose in bladder ([2]; SC, 24 hours): 3.75% | percentage of injected dose in heart ([2]; SC, 24 hours): 0.70% | percentage of injected dose in left salivary gland ([2]; SC, 24 hours): 2.67% | percentage of injected dose in lung ([2]; SC, 24 hours): 2.01% | percentage of injected dose in right salivary gland ([2]; SC, 24 hours): 2.81% | percentage of injected dose in stomach ([2]; SC, 24 hours): 7.32% | percentage of injected dose in thyroid ([2]; SC, 24 hours): 0.61% | organ with the highest uptake ([2]; all three injection routes, progressive increase until 4 to 6 hours): stomach
Structure (SMILES): [O]=[99Tc](=[O])(=[O])[O-] [control product, ^99mTc Pertechnetate]
organs in which accumulation was predominantly observed ([1]; 1 h post-injection scans): stomach, thyroid, bladder and parotid glands | organs with radioactivity uptake ([2]; intramuscular and subcutaneous administration): heart, lung, stomach, bladder, thyroid and salivary glands | organs in which radioactivity accumulated ([2]; intravenous injection): heart, lung, liver, stomach, bladder, thyroid and salivary glands
